Earlier results on four compounds are cited in US8409610B2, “Wound care device” (Coloplast A/S, priority 2003, dated 2013).

For this data set the following is noted: reported values, given as examples.
Turning to `CC(=O)Oc1ccccc1C(=O)O` [Acetylsalicylic acid], the “minimum plasma concentration for obtaining systemic effect” value (shortened to “minimum plasma concentration”) was 270 µg/mL. Take `CC(C)Cc1ccc(C(C)C(=O)O)cc1` (stereo not shown) [Ibuprofen]: the “minimum plasma concentration” value was 10 µg/mL. In the case of `CC(C(=O)O)c1cccc(C(=O)c2ccccc2)c1` (stereo not shown) [Ketoprofen], the “minimum plasma concentration” value is 3 µg/mL. With `CN1C(C(=O)Nc2ccccn2)=C(O)c2ccccc2S1(=O)=O` [Piroxicam], the “minimum plasma concentration” value is 1 µg/mL.
